{"source": "patent US20240398820A1", "about": "“METHODS FOR TREATMENT OF PULMONARY HYPERTENSION” (Respira Therapeutics, Inc., priority 2023, published 2024)", "origin": "cited, not measured here", "key": {"[1]": {"conditions": "inhaled, following pulmonary administration"}, "[2]": {"conditions": "human patients with PAH, 5 mg orally twice per day"}, "[3]": {"conditions": "in vivo"}}, "data": [{"smiles": "CCCc1nc(C)c2c(=O)nc(-c3cc(S(=O)(=O)N4CCN(CC)CC4)ccc3OCC)[nH]n12", "note": "[Vardenafil, 1-[[3-(1,4-dihydro-5-methyl-4-oxo-7-propylimidazo[5,1-f][1,2,4]triazin-2-yl)-4-ethoxyphenyl]sulfonyl]-4-ethyl-piperazine]", "values": [{"measurement": "tmax", "setting": "[1]", "result": "≤ 2", "unit": "min"}, {"measurement": "safety and efficacy in PAH", "setting": "[2]", "result": "safe and effective"}, {"measurement": "dissociation rate", "result": "slow dissociation rate"}, {"measurement": "clearance", "setting": "[3]", "result": "rapid clearance"}]}]}
